Measured values reported in patent US11541237B2, “Methods for improving shoulder range of motion and functionality” (priority 2013, dated 2023).

Assays:
[1] = test system: A (delta) and C sensory fibers; conditions: cited from earlier work; for sensory blocking properties: compared with the corresponding R (dextro)-enantiomers
[2] = test system: migraine; conditions: direct application to region of nasal epithelium overlying the SPG using a cotton swab, versus drip and spray methods; cited from earlier work
[3] = test system: saphenous nerve; test: Saphenous nerve injection, patient with severe leg and foot pain due to surgical trauma (Example 2); assay type: in vivo, human; conditions: ropivacaine 0.25% (5 ml)
Procedure: A patient with severe leg and foot pain for several years due to prior surgical trauma resulting from an initial bunionectomy and other follow-up surgeries was treated by a saphenous nerve injection of ropivacaine 0.25% (5 ml) after exquisite tenderness was noted on palpation of the saphenous nerve greater than 14 cm proximal to the level of their foot trauma. However, much of their symptomatology was in the distribution of other nerves. Indeed, they had motor dysfunction of the toes and their saphenous nerve is a purely sensory nerve. […] They could walk like they had not in many years.

[4] = cited from earlier work
[5] = test system: radial nerve; test: Injection in fanlike distribution of the radial nerve, patient with CRPS of right hand (Example 3); assay type: in vivo, human; conditions: single treatment, bupivacaine 0.25% (3 ml)
Text: A patient with CRPS and severe pain, including pins and needles sensation in their right hand for over 20 years, presented with these symptoms and major discoloration in their right arm due to compartment syndrome many years ago and could barely open and close their fist.

[6] = test system: facial pain / facial neuropathies; test: Intranasal local anesthetic in patients with facial pain after facial trauma (Examples 4-6); assay type: in vivo, human
Procedure: A patient had severe facial pain following a large metal beam impact which left them with facial neuropathies and headache that adversely affected their ability to eat and speak was treated with intranasal bupivacaine 0.5% (4 ml). […] They improved with subsequent repeat treatments and was able to perform job and daily activities normally. […] A patient with severe facial pain resulting from being hit in the face with a pipe that caused four facial fractures, for seven years had numbness in certain areas of their face and severe pain in the area of their left eye, as well as generalized facial and head pain. They were treated with intranasal bupivacaine 0.5% (4 ml). […] A patient had sustained facial nerve injuries from a close range gunshot wound to the face. They were in excruciating pain and could not speak or eat without severe duress. […] They had been in agony for over 5 years previous to this treatment.

[7] = test system: Supratrochlear nerve / occipital nerves with SPG; test: Injection of supratrochlear or occipital nerves combined with SPG block; assay type: in vivo, human
Text: Another aspect of the invention is the combination of stimulation of SPG with branches of Trigeminal nerves, or occipital nerves. There is known C-2 and 3 connection with Trigeminal nerve and SPG and likely with C1.

[8] = intranasally administered; cited from earlier work
[9] = test system: suprascapular nerve; test: Fanlike injection in the vicinity of the suprascapular nerve, patient with pain and decreased range of motion after rotator cuff repair (Example 1); assay type: in vivo, human; conditions: many months after torn rotator cuff repair, lidocaine 1% (3 ml)
Procedure: A patient with pain and decreased range of motion for many months following repair of a torn rotator cuff, was treated using a fanlike injection of lidocaine 1% (3 ml) merely in the vicinity of the suprascapular nerve, hitting small fibers in the area.
This block differs from classic suprascapular block in that the area around the nerve was targeted and treated, rather than the nerve itself. This procedure was easier to perform than trying to block the suprascapular nerve directly, which would have been much more difficult to target or specific, direct treatment. In terms of neurostimulation, or blocking with energy sources such as light, laser, infrasound or electricity, it means that transcutaneous methods can work well by targeting the area around a major nerve, or merely within its general area of innervation, and not necessarily the nerve itself.

[10] = test system: suprascapular nerve; test: Direct suprascapular injection and subsequent fanlike injection, patient with CRPS of left arm and hand with frozen shoulder syndrome (Example 7); assay type: in vivo, human; conditions: lidocaine 1% (4 ml) together with methylprednisolone acetate (10 mg), direct suprascapular then fanlike injection, a few treatment sessions
Text: A patient had severe CRPS of the left arm and hand with frozen shoulder syndrome and severe edema, allodynia coldness and nail changes involving their left hand for over 18 months. Their condition is shown in the photographs of FIGS. 6 and 7. They failed all therapies to the time of presentation.

[11] = Example 4, patient, metal beam impact, intranasal bupivacaine 0.5% (4 ml)

Question: With `CCCN1CCCC[C@H]1C(=O)Nc1c(C)cccc1C` (single isomer, unassigned) [S (levo)-enantiomer of ropivacaine] as the compound, how does the sensory blocking properties [1] read?
Answer: Its sensory blocking properties is “better sensory blocking properties”.

Question: With `CCCN1CCCC[C@H]1C(=O)Nc1c(C)cccc1C` [ropivacaine] as the compound, how does the “block of nerve fibers such as A (delta) and C sensory fibers versus motor neurons” value ([1]; compared with bupivacaine) read?
Answer: The value was “more preferentially than other neurons such as motor neurons”.

Question: What about the inhibition of migraine [2] of the same compound?
Answer: Its inhibition of migraine is “most rapid and most effective inhibition of migraine”.

Question: What about the relief of pain [3] of the same compound?
Answer: Its relief of pain is “almost complete relief of pain”.

Question: And the “sensation and strength in the distribution of other peripheral nerves, including the peroneal nerves” value [3]?
Answer: The value was “normalized sensation and strength”.

Question: What about the “time to reported pain relief” value [3] of the same compound?
Answer: The value was at most 10 min.

Question: And the “cardiovascular and central nervous system toxicity” value ([4]; compared with bupivacaine)?
Answer: Its value is “lower cardiovascular and central nervous system toxicity than bupivacaine”.

Question: And the systemic toxicity profile ([4]; compared with other similar relatively long acting potent local anesthetics)?
Answer: The systemic toxicity profile was “better systemic toxicity profile”.

Question: For `CCCCN1CCCC[C@H]1C(=O)Nc1c(C)cccc1C` [S (levo)-enantiomer of bupivacaine], which sensory blocking properties [1] is on record?
Answer: Its sensory blocking properties is “better sensory blocking properties”.

Question: What about the physiological toxicity ([4]; compared with the corresponding R (dextro)-enantiomers) of the same compound?
Answer: The physiological toxicity was “lower physiological toxicity”.

Question: For `CCCCN1CCCCC1C(=O)Nc1c(C)cccc1C` (stereo not drawn) [bupivacaine], which “symptoms and hand function” value ([5]; patient with CRPS over 20 years, fanlike distribution of radial nerve) is on record?
Answer: The value was “felt dramatically better and could open and close their hand and make and maintain a fist”.

Question: And the “neurotrophic findings of decreased temperature, edema, allodynia, discoloration and severe restriction of range of motion” value ([5]; patient with CRPS)?
Answer: The value was “decreased dramatically”.

Question: What about the relief of pain [6, 11] of the same compound?
Answer: The relief of pain was “almost complete relief of pain”.

Question: And the “time to reported pain relief” value [6, 11]?
Answer: The value was at most 3 min.

Question: What about the “ability to open mouth, eat and speak” value ([6]; Example 4, patient, intranasal bupivacaine 0.5% (4 ml)) of the same compound?
Answer: Its value is “could open their mouth wide, eat normally and could speak for normal periods of time and at normal volume”.

Question: What about the “time to reported pain relief” value ([6]; Example 5, patient, four facial fractures, pain for seven years, intranasal bupivacaine 0.5% (4 ml)) of the same compound?
Answer: The value was at most 1 min.

Question: And the relief of pain ([6]; Example 5, patient, intranasal bupivacaine 0.5% (4 ml))?
Answer: The relief of pain was “complete relief of pain”.

Question: What about the pain management ([6]; Example 6, patient, gunshot wound to the face, intranasal bupivacaine 0.5% (3-4 ml) monthly, several years follow up) of the same compound?
Answer: Its pain management is “manages their pain well”.

Question: And the adverse sequela ([6]; Example 6, intranasal bupivacaine 0.5% (3-4 ml) monthly, several years follow up)?
Answer: Its adverse sequela is “no adverse sequela”.

Question: And the “result of subsequent SPG block” value ([7]; injection of bupivacaine 0.5% to the Supratrochlear nerve)?
Answer: The value was “better result with SPG block subsequently”.

Question: And the headache ([7]; injection of occipital nerves with 0.5%, with SPG block)?
Answer: The headache was “headache was further decreased with SPG block”.

Question: For `CCN(CC)CC(=O)Nc1c(C)cccc1C` [lidocaine], which duration of action [8] is on record?
Answer: The duration of action was “shorter than about one hour”.

Question: What about the “pain and range of motion” value [9] of the same compound?
Answer: The value was “remarkable improvement in pain and range of motion”.

Question: And the “symptoms and findings of CRPS (frozen shoulder, edema, allodynia, coldness, nail changes)” value [10]?
Answer: Its value is “completely reversed these symptoms and findings”.
